Reference: ChEMBL document CHEMBL1131351, “Nonsteroidal progesterone receptor antagonists based on a conformationally-restricted subseries of 6-aryl-1,2-dihydro-2,2,4-trimethylquinolines” (Bioorg Med Chem Lett, 1998)

Key:
[1] = target: T1, Progesterone receptor (Homo sapiens, UniProt P06401); assay: Antagonist activity against human progesterone receptor B (hPR-B) in co-transfected CV-1 cells; format: functional, cell-based
T1 sequence (P06401 whole entry): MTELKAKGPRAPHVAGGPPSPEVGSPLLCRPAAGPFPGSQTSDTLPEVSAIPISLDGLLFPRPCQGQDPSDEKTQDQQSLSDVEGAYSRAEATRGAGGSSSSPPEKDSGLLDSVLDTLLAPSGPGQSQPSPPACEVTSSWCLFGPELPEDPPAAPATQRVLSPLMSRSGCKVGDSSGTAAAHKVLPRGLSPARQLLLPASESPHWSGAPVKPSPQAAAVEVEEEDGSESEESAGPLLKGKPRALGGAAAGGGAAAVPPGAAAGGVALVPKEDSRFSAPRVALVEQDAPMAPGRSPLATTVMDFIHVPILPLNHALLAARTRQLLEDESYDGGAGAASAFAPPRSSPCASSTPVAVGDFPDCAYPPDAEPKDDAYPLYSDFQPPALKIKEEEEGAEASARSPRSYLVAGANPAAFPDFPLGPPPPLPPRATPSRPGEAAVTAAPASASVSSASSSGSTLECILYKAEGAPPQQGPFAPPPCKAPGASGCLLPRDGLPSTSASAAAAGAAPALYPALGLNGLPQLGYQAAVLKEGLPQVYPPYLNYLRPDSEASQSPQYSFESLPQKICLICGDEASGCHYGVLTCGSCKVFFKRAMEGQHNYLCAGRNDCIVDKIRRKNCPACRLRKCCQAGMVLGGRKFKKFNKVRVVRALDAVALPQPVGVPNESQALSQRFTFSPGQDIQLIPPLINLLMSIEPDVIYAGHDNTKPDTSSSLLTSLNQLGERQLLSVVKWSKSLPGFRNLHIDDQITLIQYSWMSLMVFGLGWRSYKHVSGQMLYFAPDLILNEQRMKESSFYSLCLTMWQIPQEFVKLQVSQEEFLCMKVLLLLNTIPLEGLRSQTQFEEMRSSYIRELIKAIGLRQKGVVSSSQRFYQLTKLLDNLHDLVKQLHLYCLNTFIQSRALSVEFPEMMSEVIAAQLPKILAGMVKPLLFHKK

[2] = target: T1, Progesterone receptor; assay: Binding affinity against human progesterone receptor-A (hPR-A)
[3] = target: T1, Progesterone receptor; assay: Agonistic activity against human progesterone receptor B (hPR-B) in co-transfected CV-1 cells; format: functional, cell-based

Compound | IC50 [1] | Ki [2] | EC50 [3]
CC1=CC(C)(C)Nc2cc3c(c(Cl)c21)-c1ccccc1C3O (configuration not stated) | 163 nM | 53.1 nM | 
CC1=CC(C)(C)Nc2ccc3c(c21)Cc1cc([N+](=O)[O-])c(F)cc1-3 | 3330 nM | 97 nM | 
CC1=CC(C)(C)Nc2ccc3c(c21)Cc1ccccc1-3 | 549 nM | 13 nM | 
CC1=CC(C)(C)Nc2ccc3c(c21)Cc1cc([N+](=O)[O-])ccc1-3 | 1670 nM | 57 nM | 
CC1CC(C)(C)Nc2cc3c(cc21)-c1ccccc1C3 (configuration not stated) | 424 nM | 87 nM | 
CCCCn1c2ccccc2c2ccc3c(c21)C(C)=CC(C)(C)N3 | 416 nM | 77 nM | 
CC1=CC(C)(C)Nc2cc3c(cc21)-c1cc(F)cc(F)c1C3O (configuration not stated) | 74 nM | 202 nM | 
CC1=CC(C)(C)Nc2cc3c(cc21)-c1ccc(F)cc1C3O (configuration not stated) | 122 nM | 101 nM | 
CC1=CC(C)(C)Nc2ccc3c(c21)Cc1cc(Br)ccc1-3 | 2330 nM | 200 nM | 
CC1=CC(C)(C)Nc2cc3c(cc21)-c1cc(F)c([N+](=O)[O-])cc1C3 | 100 nM | 1.9 nM | 
CC1=CC(C)(C)Nc2cc3c(cc21)-c1c(F)cccc1C3O (configuration not stated) | 99 nM | 449 nM | 
CC1=CC(C)(C)Nc2cc3c(c(F)c21)-c1ccc(F)cc1C3 |  | 1.5 nM | 650 nM
CC1=CC(C)(C)Nc2cc3[nH]c4ccccc4c3cc21 | 59 nM | 113 nM | 
CC1=CC(C)(C)Nc2ccc3c([nH]c4ccccc43)c21 | 662 nM | > 1000 nM | 
CC1=CC(C)(C)Nc2ccc3c(oc4ccccc43)c21 | 1140 nM | 77 nM | 
CC1=CC(C)(C)Nc2cc3c(c(F)c21)-c1ccc(F)cc1C3OC(=O)C(F)(F)F (configuration not stated) | 46 nM | 62.5 nM | 
CC1=CC(C)(C)Nc2cc3c(cc21)-c1cccc(CO)c1C3 | 10000 nM | 12.4 nM | 
CC1=CC(C)(C)Nc2cc3oc4ccccc4c3cc21 | 1850 nM | 184 nM | 
CC1=CC(C)(C)Nc2cc3c(cc21)-c1ccc(Br)cc1C3 | 434 nM | 24 nM | 
CC1=CC(C)(C)Nc2cc3c(cc21)-c1ccc(Br)cc1C3C (configuration not stated) | 10000 nM | > 10000 nM | 

Compound | IC50 [1] | Ki [2] | EC50 [3]
CC1=CC(C)(C)Nc2cc3c(cc21)-c1cccc(F)c1C3 | 1770 nM | 2.3 nM | 
CC1=CC(C)(C)Nc2cc3c(cc21)-c1ccccc1C3 | 220 nM | 14 nM | 
CC1=CC(C)(C)Nc2cc3c(cc21)-c1ccccc1C3=O | 353 nM | 3550 nM | 
CC1=CC(C)(C)Nc2cc3c(cc21)-c1ccc(Br)cc1C3Cc1ccccc1 (configuration not stated) | 10000 nM | > 10000 nM | 
CC1=CC(C)(C)Nc2cc3c(c(F)c21)-c1ccc(F)cc1C3(C)O (configuration not stated) | 10000 nM | > 10000 nM | 
CC1=CC(C)(C)Nc2cc3c(cc21)-c1ccc(F)cc1C3 |  | 3.5 nM | 
CC1=CC(C)(C)Nc2cc3c(cc21)-c1ccc([N+](=O)[O-])cc1C3 | 90 nM | 3.6 nM | 
CC1=CC(C)(C)Nc2cc3c(c(F)c21)-c1ccc(F)cc1C3=O | 365 nM | > 10000 nM | 
CCn1c2ccccc2c2ccc3c(c21)C(C)=CC(C)(C)N3 | 284 nM | 169 nM | 
CC1=CC(C)(C)Nc2cc3c(cc21)-c1c(F)cccc1C3=O | 158 nM | 29.1 nM | 
CC1=CC(C)(C)Nc2cc3c(cc21)-c1ccccc1C3O (configuration not stated) | 609 nM | 483 nM | 
CC1=CC(C)(C)Nc2cc3c(cc21)-c1ccc(Br)cc1C3O (configuration not stated) | 3440 nM | 1860 nM | 
CC1=CC(C)(C)Nc2cc(F)c3c(c21)C(O)c1cc(F)ccc1-3 (configuration not stated) | 10000 nM | 2580 nM | 
CC1=CC(C)(C)Nc2cc3c(cc21)-c1ccc(Cl)cc1C3 | 248 nM | 29 nM | 
CC1=CC(C)(C)Nc2ccc3c(c21)Cc1c(F)cccc1-3 | 496 nM | 15.5 nM | 
CC1=CC(C)(C)Nc2cc3c(cc21)-c1c(F)cc(F)cc1C3O (configuration not stated) | 80 nM | 25.5 nM | 
CC(=O)c1ccc2c(c1)Cc1cc3c(cc1-2)C(C)=CC(C)(C)N3 | 164 nM | 176 nM | 
CC1=CC(C)(C)Nc2cc3c(cc21)-c1c(F)ccc(F)c1C3 | 146 nM | 3.1 nM | 
CC1=CC(C)(C)Nc2cc(F)c3c(c21)Cc1cc(F)ccc1-3 | 5680 nM | 20.9 nM | 
